This assay concerns HCT116 colorectal cancer cells. The experiment in a line: Cisplatin sensitization assay (96 h cell viability MTS).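 Note: compound concentration needed to lower the Cisplatin-alone IC50 by a set fold.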 The assay is classed as cell-based. The note with it: 96 h MTS, compound plus Cisplatin. The procedure, abridged:
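Cisplatin and compound are dosed at the same time, both serially diluted 2-fold from 10 μM final across a full matrix. Plates sit at 37° C in 5% CO2 for 96 h before MTS addition.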

Take `CN1C[C@@H]2CCN(c3ccncc3NC(=O)c3c(N)nn4cc(F)cnc34)C[C@@H]2C1=O` [I-N-224, 2-amino-6-fluoro-N-(4-((3aR,7aR)-2-methyl-3-oxohexahydro-1H-pyrrolo[3,4-c]pyridin-5(6H)-yl)pyridin-3-yl)pyrazolo[1,5-a]pyrimidine-3-carboxamide]: the “Cisplatin Sensitization Assay” value is “+ (Compounds with a Cisplatin sensitization value >0.2 μM but <5 μM are marked with “+.”)”. On to `Nc1nn2cc(Cl)cnc2c1C(=O)Nc1cnccc1O[C@H]1C[C@]2(CCN2)C1` [I-O-78, N-(4-((4s,6r)-1-azaspiro[3.3]heptan-6-yloxy)pyridin-3-yl)-2-amino-6-chloropyrazolo[1,5-a]pyrimidine-3-carboxamide], for which the “Cisplatin Sensitization Assay” value is given as “+ (Compounds with a Cisplatin sensitization value >0.2 μM but <5 μM are marked with “+.”)”. Consider `Nc1nn2cc(F)cnc2c1C(=O)Nc1cncc(F)c1N1CCC(C(=O)N2CCC2)CC1` [I-G-8, 2-amino-N-(4-(4-(azetidine-1-carbonyl)piperidin-1-yl)-5-fluoropyridin-3-yl)-6-fluoropyrazolo[1,5-a]pyrimidine-3-carboxamide], for which the “Cisplatin Sensitization Assay” value is on record as “+++ (Compounds with a Cisplatin sensitization value of <0.02 μM are marked with “+++.”)”. `Cc1cccnc1-c1ccncc1NC(=O)c1c(N)nn2cc(F)cnc12` [I-C-36, 2-amino-6-fluoro-N-(3-methyl-[2,4′-bipyridin]-3′-yl)pyrazolo[1,5-a]pyrimidine-3-carboxamide]: the “Cisplatin Sensitization Assay” value is “+++ (Compounds with a Cisplatin sensitization value of <0.02 μM are marked with “+++.”)”. Consider `Nc1nn2cc(F)cnc2c1C(=O)Nc1cnccc1N1CCC(CN2CCC(F)(F)C2)CC1` [I-N-197, 2-amino-N-(4-(4-((3,3-difluoropyrrolidin-1-yl)methyl)piperidin-1-yl)pyridin-3-yl)-6-fluoropyrazolo[1,5-a]pyrimidine-3-carboxamide], for which the “Cisplatin Sensitization Assay” value is on record as “+++ (Compounds with a Cisplatin sensitization value of <0.02 μM are marked with “+++.”)”.

`Cc1ccncc1NC(=O)c1c(N)nn2cc(Cl)cnc12` [I-C-2, 2-amino-6-chloro-N-(4-methylpyridin-3-yl)pyrazolo[1,5-a]pyrimidine-3-carboxamide]: the “Cisplatin Sensitization Assay” value was “++ (Compounds with a Cisplatin sensitization value >0.02 μM but <0.2 μM are marked with “++.”)”. Regarding `CN(C)CCOc1ccncc1NC(=O)c1c(N)nn2cc(Cl)cnc12` [I-O-48, 2-amino-6-chloro-N-(4-(2-(dimethylamino)ethoxy)pyridin-3-yl)pyrazolo[1,5-a]pyrimidine-3-carboxamide], the “Cisplatin Sensitization Assay” value is on record as “++ (Compounds with a Cisplatin sensitization value >0.02 μM but <0.2 μM are marked with “++.”)”. For the compound `CN1CCN(C2CCN(c3ccncc3NC(=O)c3c(N)nn4cc(Cl)cnc34)CC2)CC1` [I-N-97, 2-amino-6-chloro-N-(4-(4-(4-methylpiperazin-1-yl)piperidin-1-yl)pyridin-3-yl)pyrazolo[1,5-a]pyrimidine-3-carboxamide], the “Cisplatin Sensitization Assay” value is listed as “+++ (Compounds with a Cisplatin sensitization value of <0.02 μM are marked with “+++.”)”. Take `COC1CCN(c2ccncc2NC(=O)c2c(N)nn3cc(F)cnc23)CC1` [I-N-266, 2-amino-6-fluoro-N-(4-(4-methoxypiperidin-1-yl)pyridin-3-yl)pyrazolo[1,5-a]pyrimidine-3-carboxamide]: the “Cisplatin Sensitization Assay” value is “+++ (Compounds with a Cisplatin sensitization value of <0.02 μM are marked with “+++.”)”.

Consider `Nc1nn2cc(F)cnc2c1C(=O)Nc1cnccc1N1CC(=O)N2CCCC2C1` (centres unmarked) [I-N-222, 2-amino-6-fluoro-N-(4-(4-oxohexahydropyrrolo[1,2-a]pyrazin-2(1H)-yl)pyridin-3-yl)pyrazolo[1,5-a]pyrimidine-3-carboxamide], for which the “Cisplatin Sensitization Assay” value is given as “++ (Compounds with a Cisplatin sensitization value >0.02 μM but <0.2 μM are marked with “++.”)”.

As for `Nc1nn2cc(F)cnc2c1C(=O)Nc1cnccc1N1CCCC2(COC2)C1` [I-N-253, N-(4-(2-oxa-6-azaspiro[3.5]nonan-6-yl)pyridin-3-yl)-2-amino-6-fluoropyrazolo[1,5-a]pyrimidine-3-carboxamide], the “Cisplatin Sensitization Assay” value is given as “+++ (Compounds with a Cisplatin sensitization value of <0.02 μM are marked with “+++.”)”. The entry for `Nc1nn2cc(F)cnc2c1C(=O)Nc1cnccc1N1CCCCC1` [I-N-152, 2-amino-6-fluoro-N-(4-(piperidin-1-yl)pyridin-3-yl)pyrazolo[1,5-a]pyrimidine-3-carboxamide] is “+++ (Compounds with a Cisplatin sensitization value of <0.02 μM are marked with “+++.”)”. With `CN1CCC(Oc2c(Cl)cncc2NC(=O)c2c(N)nn3cc(Cl)cnc23)CC1` [I-O-46, 2-amino-6-chloro-N-(5-chloro-4-((1-methylpiperidin-4-yl)oxy)pyridin-3-yl)pyrazolo[1,5-a]pyrimidine-3-carboxamide] the entry was “+ (Compounds with a Cisplatin sensitization value >0.2 μM but <5 μM are marked with “+.”)”; with `CN(C)Cc1ccc(Oc2ccncc2NC(=O)c2c(N)nn3cc(F)cnc23)cn1` [I-O-3, 2-amino-N-(4-((6-((dimethylamino)methyl)pyridin-3-yl)oxy)pyridin-3-yl)-6-fluoropyrazolo[1,5-a]pyrimidine-3-carboxamide], “++ (Compounds with a Cisplatin sensitization value >0.02 μM but <0.2 μM are marked with “++.”)”. Consider `COC(=O)N1CCN(c2c(F)cncc2NC(=O)c2c(N)nn3cc(F)cnc23)CC1` [I-N-261, methyl-4-(3-(2-amino-6-fluoropyrazolo[1,5-a]pyrimidine-3-carboxamido)-5-fluoropyridin-4-yl)piperazine-1-carboxylate], for which the “Cisplatin Sensitization Assay” value was “+++ (Compounds with a Cisplatin sensitization value of <0.02 μM are marked with “+++.”)”. Consider `CN1CC2CN(C(=O)C3CCN(c4c(F)cncc4NC(=O)c4c(N)nn5cc(F)cnc45)CC3)CC2C1` (centres unmarked) [I-G-18, 2-amino-6-fluoro-N-(5-fluoro-4-(4-(5-methyloctahydropyrrolo[3,4-c]pyrrole-2-carbonyl)piperidin-1-yl)pyridin-3-yl)pyrazolo[1,5-a]pyrimidine-3-carboxamide], for which the “Cisplatin Sensitization Assay” value is “+++ (Compounds with a Cisplatin sensitization value of <0.02 μM are marked with “+++.”)”. `CN1CCN(C(=O)C2CCN(c3c(F)cncc3NC(=O)c3c(N)nn4cc(F)cnc34)C2)CC1` (centres unmarked) [I-N-191, 2-amino-6-fluoro-N-(5-fluoro-4-(3-(4-methylpiperazine-1-carbonyl)pyrrolidin-1-yl)pyridin-3-yl)pyrazolo[1,5-a]pyrimidine-3-carboxamide]: the “Cisplatin Sensitization Assay” value was “+ (Compounds with a Cisplatin sensitization value >0.2 μM but <5 μM are marked with “+.”)”. Consider `CN(C)C(=O)[C@H]1CC[C@@H](Oc2ccncc2NC(=O)c2c(N)nn3cc(F)cnc23)CC1` [I-O-17, 2-amino-N-(4-(((1s,4s)-4-(dimethylcarbamoyl)cyclohexyl)oxy)pyridin-3-yl)-6-fluoropyrazolo[1,5-a]pyrimidine-3-carboxamide], for which the “Cisplatin Sensitization Assay” value was “+++ (Compounds with a Cisplatin sensitization value of <0.02 μM are marked with “+++.”)”. Consider `Nc1nn2cc(F)cnc2c1C(=O)Nc1cnccc1N1CCN(S(=O)(=O)C2CCOCC2)CC1` [I-N-177, 2-amino-6-fluoro-N-(4-(4-((tetrahydro-2H-pyran-4-yl)sulfonyl)piperazin-1-yl)pyridin-3-yl)pyrazolo[1,5-a]pyrimidine-3-carboxamide], for which the “Cisplatin Sensitization Assay” value is given as “+++ (Compounds with a Cisplatin sensitization value of <0.02 μM are marked with “+++.”)”.

For `Nc1nn2cc(F)cnc2c1C(=O)Nc1cnccc1C1CCN(C2COC2)CC1` [I-C-10, 2-amino-6-fluoro-N-(4-(1-(oxetan-3-yl)piperidin-4-yl)pyridin-3-yl)pyrazolo[1,5-a]pyrimidine-3-carboxamide], the “Cisplatin Sensitization Assay” value is “+++ (Compounds with a Cisplatin sensitization value of <0.02 μM are marked with “+++.”)”. Consider `COC1CCN(C2CCN(c3ccncc3NC(=O)c3c(N)nn4cc(Cl)cnc34)CC2)C1` (centres unmarked) [I-N-95, 2-amino-6-chloro-N-(4-(4-(3-methoxypyrrolidin-1-yl)piperidin-1-yl)pyridin-3-yl)pyrazolo[1,5-a]pyrimidine-3-carboxamide], for which the “Cisplatin Sensitization Assay” value is “++ (Compounds with a Cisplatin sensitization value >0.02 μM but <0.2 μM are marked with “++.”)”.

For `C[C@H]1CN(C2COC2)CCN1c1ccncc1NC(=O)c1c(N)nn2cc(F)cnc12` [I-N-24, (S)-2-amino-6-fluoro-N-(4-(2-methyl-4-(oxetan-3-yl)piperazin-1-yl)pyridin-3-yl)pyrazolo[1,5-a]pyrimidine-3-carboxamide], the “Cisplatin Sensitization Assay” value is given as “+++ (Compounds with a Cisplatin sensitization value of <0.02 μM are marked with “+++.”)”. Take `CN1CCN(c2c(F)cncc2NC(=O)c2c(N)nn3cc(CC#N)cnc23)CC1` [I-N-80, 2-amino-6-(cyanomethyl)-N-(5-fluoro-4-(4-methylpiperazin-1-yl)pyridin-3-yl)pyrazolo[1,5-a]pyrimidine-3-carboxamide]: the “Cisplatin Sensitization Assay” value is listed as “++ (Compounds with a Cisplatin sensitization value >0.02 μM but <0.2 μM are marked with “++.”)”.

For the compound `COc1cncc(NC(=O)c2c(N)nn3cc(F)cnc23)c1-c1cccnc1` [I-C-82, 2-amino-6-fluoro-N-(5′-methoxy-[3,4′-bipyridin]-3′-yl)pyrazolo[1,5-a]pyrimidine-3-carboxamide], the “Cisplatin Sensitization Assay” value was “+++ (Compounds with a Cisplatin sensitization value of <0.02 μM are marked with “+++.”)”.

Regarding `Nc1nn2cc(F)cnc2c1C(=O)Nc1cnccc1N1CCN(CC(F)(F)F)CC1` [I-N-20, 2-amino-6-fluoro-N-(4-(4-(2,2,2-trifluoroethyl)piperazin-1-yl)pyridin-3-yl)pyrazolo[1,5-a]pyrimidine-3-carboxamide], the “Cisplatin Sensitization Assay” value was “+++ (Compounds with a Cisplatin sensitization value of <0.02 μM are marked with “+++.”)”. The entry for `Nc1nn2cc(F)cnc2c1C(=O)Nc1cncc(Cl)c1N1CCC(O)C1` (centres unmarked) [I-N-284, 2-amino-N-(5-chloro-4-(3-hydroxypyrrolidin-1-yl)pyridin-3-yl)-6-fluoropyrazolo[1,5-a]pyrimidine-3-carboxamide] is “+++ (Compounds with a Cisplatin sensitization value of <0.02 μM are marked with “+++.”)”.

Source of the values: patent US10787452B2 (Vertex Pharmaceuticals Incorporated, priority 2012, dated 2020).
